Tests used:
[1] = molecular target: T1, FLAG-tagged Vanin-1 (AA 22-493, T26I) (Homo sapiens, UniProt O95497, T26I); assay: Vanin-1 enzymatic assay; format: biochemical; conditions: 0.1 nM Vanin-1, 3 μM D-pantethine, pantothenic acid formation by RapidFire MS; geometric mean if multiple measurements; read-out: VNN-1 IC50
T1 construct: FLAG-tagged Vanin-1 (AA 22-493, T26I, produced internally); FLAG; made in house
T1 sequence (O95497 22-493 T26I): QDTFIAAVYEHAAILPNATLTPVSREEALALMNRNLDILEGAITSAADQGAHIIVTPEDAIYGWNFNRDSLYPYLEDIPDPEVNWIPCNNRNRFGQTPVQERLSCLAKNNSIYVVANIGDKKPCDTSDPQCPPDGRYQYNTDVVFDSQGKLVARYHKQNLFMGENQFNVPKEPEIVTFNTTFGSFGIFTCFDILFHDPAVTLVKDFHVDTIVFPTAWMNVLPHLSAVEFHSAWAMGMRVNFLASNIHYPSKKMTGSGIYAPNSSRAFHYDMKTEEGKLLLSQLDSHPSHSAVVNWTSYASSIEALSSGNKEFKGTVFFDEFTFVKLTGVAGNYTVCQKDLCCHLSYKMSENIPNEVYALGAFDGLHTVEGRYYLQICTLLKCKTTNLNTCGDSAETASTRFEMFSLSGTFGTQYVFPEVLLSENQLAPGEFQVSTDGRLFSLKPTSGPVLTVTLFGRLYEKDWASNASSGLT
Experimental: The test compounds are dissolved in 100% DMSO at a concentration of 10 mM and in a first step diluted in DMSO to a concentration of 5 mM, followed by serial dilution steps in 100% DMSO. Dilution factor and number of dilution steps may vary according to needs. Typically 8 different concentrations by 1:5 dilutions are prepared, a further intermediate dilutions of the substances is carried out with assay buffer resulting in 1% final DMSO concentration in the assay.
0.1 nM of FLAG-tagged Vanin-1 (AA 22-493, T26I, produced internally) and test compounds are incubated at room temperature for 20 minutes in assay buffer (1 mM DTT, 0.0025% Brij-35, 50 mM HEPES, pH7.5). D-Pantethine (Sigma, Cat #P2125-5G) in assay buffer is added (final concentration 3 μM) and incubated for additional 30 minutes at room temperature. Total assay volume typically is 40 μl but might be adjusted according to needs. Reaction is stopped by adding equal volume of stop solution as the reaction mixture to reach 100 nM HD-pantothenic acid (as an internal standard) and 1% TFA. Assay plates are centrifuged for 2 minutes and the formation of pantothenic acid is detected by RapidFire Mass Spectrometry (mobile phase A: 0.1% formic acid and 0.01% trifluoroacetic acid in water; mobile phase B: 47.5% acetonitrile, 47.5% methanol, 0.1% formic acid and 0.01% trifluoroacetic acid in water) using a C18, 12 μL cartridge (Agilent Cat #G9205A).
The values given in Table I result from measurements of one or more samples. In case of multiple measurements the geometric mean values are given.

[2] = tested on: Pantetheinase (vanin); assay: Human Whole Blood assay; format: cell-based; conditions: pantethine substrate, pantothenic acid formation by RapidFire MS, read-out: HWB IC50
Experimental: Human Whole Blood assay: Pantetheinase (vanin) converts panteheine into pantothenic acid and cysteamine. Accordingly, in the described protocol vanin activity is quantified by formation of pantothenic acid after pantetheine supplementation via pantethine. The assay is applicable to identify vanin inhibitors. Compound stocks are dissolved in DMSO at 10 mM. Further dilutions are performed in RPMI 1640 medium (Gibco, #A-10491-01) and final concentrations in the assay are 0.032 nM-500 nM.
Human blood is drawn into a blood bag (1% heparin, 50 I.E./mL). Blood is aliquoted into cavities of 96-deep-well plates at 290 μL and mixed with 10 μL compound solution or vehicle (30 sec at 1400 rpm on a shaker). Equilibration follows at room temperature, 250 rpm and for 30 min. The assay is starts by adding 10 μL of substrate solution (20 μM pantethine in 1 mM DTT, 0.0025% Brij-35, 50 mM HEPES, pH7.5) to each well, except for some blank wells which receive […] substrate buffer (1 mM DTT, 0.0025% Brij-35, 50 mM HEPES, pH7.5) only. Samples are thoroughly shaken (30 sec, 1400 rpm) and reaction is allowed to take place at room temperature, 250 rpm and for 5 min. The reaction is stopped by addition of a vanin tool inhibitor in excess (BI-1 total conc. 10 μM). Centrifugation of the plate follows at 4° C., 665 G for 10 min. Then the blood plasma samples (100 μL) are transferred into another 96-deep-well plate and proteins are precipitated (5 min on ice) by adding 100 μL of ice cold precipitation solution (1 μM labelled pantothenic acid (di-β-alanine-13C6,15N2 calcium salt, Sigma, #705837) in acetonitrile). Afterwards the plate is centrifuged (4° C., 3220 G, 10 min) and supernatants (50 μL) are collected into another 96-deep-well plate and mixed (10 sec, 1400 rpm) with 150 μL ice cold formic acid (0.1%, Carl Roth GmbH+Co.KG, #CP03.1). The formation of pantothenic acid is detected by RapidFire Mass Spectrometry. A TripleQuad 6500+ (ABSciex, Germany) is equipped with an LC-1290 system, a RapidFire autosampler (Agilent, Germany) and a C18 cartridge Type C 12 μL (Agilent Cat #G9526-80000). Mobile phase A is consisting of 0.09% formic acid and 0.01% trifluoroacetic acid in water and mobile phase B of 0.09% formic acid and 0.01% trifluoroacetic acid in acetonitrile/methanol/water=47.5/47.5/5.

Row | Structure (SMILES) | IC50 [1] [nM] | IC50 [2] [nM]
1 | CN(C(=O)C1CC1)[C@H]1CCN(C(=O)c2ccc(NCc3cccnc3)nc2)C1 [Example 1.8] | 0.12 | 1.69
2 | CN(C(=O)C1(C)CCC1)[C@H]1CCN(C(=O)c2ccc(NCc3ccc(N)nc3)nc2)C1 [Example 1.31] | 0.44 | 2.63
3 | CN(C(=O)C1CC1)[C@H]1CCN(C(=O)c2ccc(NCc3ccc(N)nc3)nc2)C1 [Example 1.24] | 0.27 | 1.44
4 | CC(=O)N(C)[C@H]1CCN(C(=O)c2ccc(NC3(c4cncc(C(F)(F)F)c4)CC3)nc2)C1 [Example 1.17] | 0.21 | 5.59
5 | CN(C(=O)C1CCC1)[C@H]1CCN(C(=O)c2ccc(NC(C)(C)c3ccccc3)nc2)C1 [Example 2.2] | 0.07 | 4.49
6 | CC(=O)N(C)[C@H]1CCN(C(=O)c2ccc(NCc3ccccc3)nc2)C1 [Example 1.6] | 0.81 | 2.34
7 | CC(=O)N(C)[C@H]1CCN(C(=O)c2ccc(NCc3cccs3)nc2)C1 [Example 1.42] | 0.85 | 9.88
8 | CC(=O)N(C)[C@H]1CCN(C(=O)c2ccc(NCc3cccnc3)nc2)C1 [Example 7.1, N-Methyl-N-[(3S)-1-(6-{[(pyridin-3-yl)methyl]amino}pyridine-3-carbonyl)pyrrolidin-3-yl]acetamide] | 0.13 | 1.78
9 | CN(C(=O)C1CC1)[C@H]1CCN(C(=O)c2ccc(NC3(c4cncnc4)CC3)nc2)C1 [Example 8.6] | 0.15 | 1.84
10 | CN(C(=O)C1(C)CCC1)[C@H]1CCN(C(=O)c2ccc(NCc3cccnc3)nc2)C1 [Example 1.14] | 0.18 | 8.7
11 | CN(C(=O)C1CC1)[C@H]1CCN(C(=O)c2ccc(NCc3cnccc3C(F)(F)F)nc2)C1 [Example 1.33] | 0.46 | 2.05
12 | COc1ccc(CNc2ccc(C(=O)N3CC[C@H](N(C)C(=O)C4CC4)C3)cn2)cn1 [Example 1.47] | 0.97 | 5.93
13 | C[C@H](Nc1ccc(C(=O)N2CCC(C)(C#N)C2)cn1)c1ccccc1 (stereo partly shown) [Example 3.2] | 0.19 | 1.94
14 | CC(=O)N(C)[C@H]1CCN(C(=O)c2ccc(NCc3cccc(Cl)c3)nc2)C1 [Example 1.3] | 1.02 | 1.03
15 | CC(=O)N(C)[C@H]1CCN(C(=O)c2ccc(N[C@@H](C)c3ccc(F)cc3F)nc2)C1 [Example 9.6] | 0.42 | 5.03
16 | Cc1ccncc1CNc1ccc(C(=O)N2CC[C@H](N(C)C(=O)C3(C)CCC3)C2)cn1 [Example 1.9] | 0.12 | 1.9

Row | Structure (SMILES) | IC50 [1] [nM] | IC50 [2] [nM]
17 | CC(=O)N(C)[C@H]1CCN(C(=O)c2ccc(N[C@@H](C)c3ccccc3)nc2)C1 [Example 1.2] | 0.2 | 4.51
18 | CN(C(=O)C1CC(F)(F)C1)[C@H]1CCN(C(=O)c2ccc(NC(C)(C)c3cccnc3)nc2)C1 [Example 8.2] | 0.08 | 1
19 | CC(=O)N(C)[C@H]1CCN(C(=O)c2ccc(N[C@@H](C)c3ccc(Cl)nc3)nc2)C1 [Example 1.11, N-[(3S)-1-(6-{[(1S)-1-(6-chloropyridin-3-yl)ethyl]-amino}pyridine-3-carbonyl)pyrrolidin-3-yl]-N-methylacetamide] | 0.15 | 1.9
20 | CN(C(=O)C1CC(F)(F)C1)[C@H]1CCN(C(=O)c2ccc(NCc3cccnc3)nc2)C1 [Example 8.4] | 0.13 | 1.16
21 | O=C(c1ccc(NCc2ccc(Cl)cc2)nc1)N1CC[C@H](N2CCCC2=O)C1 [Example 8.9] | 0.32 | 4.89
22 | CNS(=O)(=O)c1cccc(C(C)Nc2ccc(C(=O)N3CC[C@H](N(C)C(C)=O)C3)cn2)c1 (stereo partly shown) [Example 1.21] | 0.24 | 0.8
23 | CC(=O)N(C)[C@H]1CCN(C(=O)c2ccc(N[C@@H](C)c3cccc(C(F)(F)F)c3)nc2)C1 [Example 9.3] | 0.17 | 4.28
24 | CC1(C#N)CCN(C(=O)c2ccc(NC(C)(C)c3cccnc3)nc2)C1 (stereo not shown) [Example 8.3] | 0.08 | 0.85
25 | CC(=O)N(C)[C@H]1CCN(C(=O)c2ccc(NC(C)(C)c3ccc(Cl)cc3)nc2)C1 [Example 4.7] | 0.22 | 3.68
26 | CC(=O)N(C)[C@H]1CCN(C(=O)c2ccc(NC3CCc4ncccc43)nc2)C1 (stereo partly shown) [Example 1.37] | 0.61 | 1.07
27 | CN(C(=O)C1CCC1)[C@H]1CCN(C(=O)c2ccc(NCc3cccnc3)nc2)C1 [Example 3.1, N-Methyl-N-[(3S)-1-(6-{[(pyridin-3-yl)methyl]amino}pyridine-3-carbonyl)pyrrolidin-3-yl]cyclobutanecarboxamide] | 0.07 | 1.33
28 | O=C(c1ccc(NCc2ccc(Cl)cc2)nc1)N1CC[C@H](N2CCOC2=O)C1 [Example 8.12] | 0.41 | 10.4
29 | CC(=O)N(C)[C@H]1CCN(C(=O)c2ccc(N[C@@H](C)c3cccc(S(N)(=O)=O)c3)nc2)C1 [Example 1.19] | 0.22 | 2.63
30 | CC(C)(Nc1ccc(C(=O)N2CC[C@H](N3CCOC3=O)C2)cn1)c1ccccc1 [Example 4.3] | 0.12 | 2.32
31 | CC(=O)N(C)[C@H]1CCN(C(=O)c2ccc(NC(C)(C)c3ccccc3)nc2)C1 [Example 4.4] | 0.12 | 1.34
32 | CC(=O)N(C)[C@H]1CCN(C(=O)c2ccc(NC(C)c3cccc(C#N)c3)nc2)C1 (stereo partly shown) [Example 1.40] | 0.67 | 2.1

From US12240828B2, “Heteroaromatic compounds as vanin inhibitors” (Boehringer Ingelheim International GmbH, priority 2018, dated 2025)
